Source: ChEMBL document CHEMBL1127280, “Imidazolidinones and pyrazolones as novel ACAT inhibitors: Chemistry and biological activity” (Bioorg Med Chem Lett, 1994)
pIC50: −log10 of the molar value.

Legend:
O-acyltransferase = O-acyltransferase (Oryctolagus cuniculus, UniProt G1SFD9); experiment: In vitro Acyl coenzyme A:cholesterol acyltransferase inhibition by incubation with [14C]oleolyl-CoA and intestinal microsomes isolated from cholesterol-fed rabbits.; parameters: species or system Intestine
Sequence of O-acyltransferase (G1SFD9 1-524): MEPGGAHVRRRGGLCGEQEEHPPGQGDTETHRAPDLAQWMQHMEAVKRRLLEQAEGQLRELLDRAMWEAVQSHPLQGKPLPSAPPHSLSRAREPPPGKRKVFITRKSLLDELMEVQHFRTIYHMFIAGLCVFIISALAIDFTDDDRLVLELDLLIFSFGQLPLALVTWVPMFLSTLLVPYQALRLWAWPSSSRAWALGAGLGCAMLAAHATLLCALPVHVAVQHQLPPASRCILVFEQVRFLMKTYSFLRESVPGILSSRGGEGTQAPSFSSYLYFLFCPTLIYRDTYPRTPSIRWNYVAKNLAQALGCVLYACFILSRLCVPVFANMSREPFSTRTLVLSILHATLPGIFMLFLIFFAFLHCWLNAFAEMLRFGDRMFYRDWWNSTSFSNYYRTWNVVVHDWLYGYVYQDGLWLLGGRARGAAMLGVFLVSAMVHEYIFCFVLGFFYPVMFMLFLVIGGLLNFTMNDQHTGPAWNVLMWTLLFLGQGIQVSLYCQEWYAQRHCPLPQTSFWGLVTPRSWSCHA

Rattus norvegicus = species on record: Rattus norvegicus; experiment: Cholesterol lowering activity was assessed in rats expressed as percent change in total cholesterol (TC) in cholic acid-cholesterol-peanut oil fed rats; type: functional

Compound CCCCCCCCCCC1=NN(c2c(C)cccc2C)C(=O)C1 has a pIC50 (O-acyltransferase) of 5.30.

For CCCCCCCC/C=C\CCCCCCCC1=NN(c2ccc(F)cc2F)C(=O)C1, the pIC50 (O-acyltransferase) was 5.30.

For CCCCCCCC/C=C\CCCCCCCC1=NN(c2ccc([N+](=O)[O-])cc2[N+](=O)[O-])C(=O)C1, the pIC50 (O-acyltransferase) was 5.30 and the “Change in TC” value (Rattus norvegicus) was -26%.

With CCCCCCCC/C=C\CCCCCCCC1=NN(c2c(Cl)cccc2Cl)C(=O)C1 the pIC50 (O-acyltransferase) was 4.64 and the “Change in TC” value (Rattus norvegicus) was -18%.

CCCCCCCC/C=C\CCCCCCCC1=NN(c2ccc(Cl)cc2Cl)C(=O)C1 was tested, and the pIC50 (O-acyltransferase) was 5.00.

For CC(C)c1cccc(C(C)C)c1N1CNC(C(c2ccccc2)c2ccccc2)C1=O (stereo unspecified), the pIC50 (O-acyltransferase) was 5.41.

CC(C)c1cccc(C(C)C)c1N1CN(C(c2ccccc2)c2ccccc2)CC1=O showed a pIC50 (O-acyltransferase) of 5.89.

Cc1cccc(C)c1N1N=C(CC(c2ccccc2)c2ccccc2)CC1=O was tested, and the pIC50 (O-acyltransferase) was 4.29.

CC(C)c1cccc(C(C)C)c1N1CNC(Cc2ccccc2)C1=O (stereo unspecified) was tested, and the pIC50 (O-acyltransferase) was 5.26 and the “Change in TC” value (Rattus norvegicus) was -9%.

For CC(C)c1cccc(C(C)C)c1N1CN(CC(c2ccccc2)c2ccccc2)CC1=O, the pIC50 (O-acyltransferase) was 5.30 and the “Change in TC” value (Rattus norvegicus) was -6%.

With CCCCCCCC/C=C\CCCCCCCC1=NN(c2ccc(C)cc2C)C(=O)C1 the pIC50 (O-acyltransferase) was 5.30 and the “Change in TC” value (Rattus norvegicus) was -26%.
